Drawing on patent publication US20110230428A1, “CERTAIN KYNURENINE-3-MONOOXYGENASE INHIBITORS, PHARMACEUTICAL COMPOSITIONS, AND METHODS OF USE THEREOF” (priority 2008, published 2011), this text covers inhibition for 38 compounds.

Each structure is given as a SMILES string. Structures can show the parent of a compound that is named as a salt.

T1 sequence (Q91WN4 whole entry): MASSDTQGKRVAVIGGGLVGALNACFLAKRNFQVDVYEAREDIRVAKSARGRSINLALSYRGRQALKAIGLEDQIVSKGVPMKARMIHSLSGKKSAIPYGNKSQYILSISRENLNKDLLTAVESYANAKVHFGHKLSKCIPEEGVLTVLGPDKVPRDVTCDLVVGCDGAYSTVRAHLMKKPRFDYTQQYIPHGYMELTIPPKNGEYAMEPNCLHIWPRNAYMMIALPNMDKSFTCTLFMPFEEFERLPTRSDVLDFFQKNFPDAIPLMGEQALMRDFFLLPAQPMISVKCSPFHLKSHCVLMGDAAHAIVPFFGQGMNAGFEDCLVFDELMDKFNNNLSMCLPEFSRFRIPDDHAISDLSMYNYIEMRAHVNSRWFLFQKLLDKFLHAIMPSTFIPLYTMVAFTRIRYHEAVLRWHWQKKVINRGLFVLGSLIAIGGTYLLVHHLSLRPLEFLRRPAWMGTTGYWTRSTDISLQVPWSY

This assay concerns the target T1, KMO mouse enzyme (Mus musculus, UniProt Q91WN4).
T1 construct: KMO enzyme prepared at Evotec from mouse liver (4-6 weeks old) via mitochondria isolation; from tissue; host or cells: mouse liver (4-6 weeks old), isolated mitochondria
In words: KMO mouse enzyme assay: L-Kynurenine hydroxylation to 3OH-KYN by LC/MS. The format is biochemical. Particulars: compound at 10 μM; KMO from mouse liver mitochondria; read-out: INH.Mouse @ 10 μM. As for the experimental part:
A method of monitoring L-Kynurenine (KYN) hydroxylation to form 3-Hydroxy-Kynurenine (3OH-KYN) by LC/MS is described. Product is quantified by multiple reaction monitoring (MRM method).
• Compound: Stock concentrations: 10 mM in 100% DMSO • Enzyme: KMO enzyme prepared at Evotec from mouse liver (4-6 weeks old) via mitochondria isolation as described in the literature • Substrate: L-Kynurenine (Sigma: Cat# K3750, stock concentration: 10 mM in 100 mM potassium phosphate buffer, pH 7.4)
• Buffer: 100 mM potassium phosphate, pH 7.4, 200 μM NADPH, 0.4 U/ml G6P-DH (Glucose 6-phosphate Dehydrogenase), 3 mM G6P (D-Glucose 6-phosphate) • Assay Volume: 40 μl • Plate Format: 384 well plate, transparent (Matrix) • Read-Out: product (3OH-KYN) quantification using product specific MRM • Reader: LC/MS/MS
• prepare serial dilution (factor 3) of compound in 100% DMSO (top concentration=10 mM, 100% DMSO) • [8 points: 10 mM; 3.33 mM; 1.11 mM; 0.37 mM; 0.12 mM; 0.04 mM; 0.0137 mM; 0.0045 mM, 0.0015 mM] • prepare […] solution of each compound concentration (top concentration 300 μM, 3% DMSO) in assay buffer • [concentrations: 300 μM; 100 μM; 33.3 μM; 11.1 μM; 3.70 μM; 1.23 μM; 0.41 μM; 0.137 μM] • prepare substrate (10 mM) at concentration of 1 mM in assay buffer • assay mix: 4 μl compound/well of each concentration+24 μl assaybuffer/well+8 μl KMO mouse enzyme+4 μl 1 mM substrate (final concentration=100 μM) • [final compound top concentration: 30 μM; 0.3% DMSO] • [final compound bottom concentration: 0.0137 μM; 0.3% DMSO] • positive control: 4 μl 50 μM FCE28833 in assay buffer, 0.5% DMSO [final assay concentration=5 μM]+24 μl assaybuffer/well+8 μl KMO mouse enzyme+4 μl 1 mM substrate [final concentration=100 μM] • negative control: 28 μl assay buffer/well+8 μl KMO mouse enzyme+4 μl 1 mM substrate [final concentration=100 μM] • incubate 40 min at RT • add 40 μl/well 10% trichloro acetic acid in water to stop the assay and precipitate protein • centrifuge plate for 3 min at 4000 rpm • product detection by LC/MS (injection of 20 μl/well, 2 fold overfill of the 10 μl sample loop) Data analysis: IC50's are calculated using automated fitting algorithm (A+Analysis).
Using procedures similar to those described herein, the following compounds were assayed for activity.
For the compound `CON=C(CCC(=O)NCCN1CCOCC1)c1ccc(Cl)c(Cl)c1` [4-(3,4-Dichloro-phenyl)-4-methoxyimino-N-(2-morpholin-4-yl-ethyl)-butyramide], the inhibition at 10 µM was 54.6%. For the compound `CO/N=C(\CCC(=O)N1CCOCC1)c1ccc(Cl)c(Cl)c1` [1-(3,4-Dichloro-phenyl)-4-morpholin-4-yl-butane-1,4-dione 1-(O-methyl-oxime)], the inhibition at 10 µM came out at 63.4%. In the case of `CON=C(CCC(N)=O)c1ccc(Cl)c(Cl)c1` [4-(3,4-Dichloro-phenyl)-4-methoxyimino-butyramide] it was 94.9%. Take `CON=C(CCC(=O)N1CCC(C)CC1)c1ccc(Cl)c(Cl)c1` [1-(3,4-Dichloro-phenyl)-4-(4-methyl-piperidin-1-yl)-butane-1,4-dione 1-(O-methyl-oxime)]: the inhibition at 10 µM came out at 57.3%. In the case of `CO/N=C(\CCC(=O)Nc1ccccn1)c1ccc(Cl)c(Cl)c1` [4-(3,4-Dichloro-phenyl)-4-methoxyimino-N-pyridin-2-yl-butyramide] it was 104%; in that of `CON=C(CCC(=O)Nc1cnccc1C)c1ccc(Cl)c(Cl)c1` [4-(3,4-Dichloro-phenyl)-4-methoxyimino-N-(4-methyl-pyridin-3-yl)-butyramide], 93.9%; in that of `CO/N=C(\CCC(=O)NC(C)C)c1ccc(Cl)c(Cl)c1` [4-(3,4-Dichloro-phenyl)-N-isopropyl-4-methoxyimino-butyramide], 94.3%. As for `CCNC(=O)CC/C(=N\OC)c1ccc(Cl)c(Cl)c1` [4-(3,4-Dichloro-phenyl)-N-ethyl-4-methoxyimino-butyramide], the inhibition at 10 µM is 98.9%. The value for `O=C(O)CC/C(=N\OCC1CC1)c1ccc(Cl)c(Cl)c1` [4-Cyclopropylmethoxyimino-4-(3,4-dichloro-phenyl)-butyric acid] was 99.6%; that for `CON=C(CCC(=O)NCC(O)CO)c1ccc(Cl)c(Cl)c1` (centres unmarked) [4-(3,4-Dichloro-phenyl)-N-(2,3-dihydroxy-propyl)-4-methoxyimino-butyramide] was 75.7%. In the case of `CON=C(CCC(=O)Nc1ccc(C)nc1C)c1ccc(Cl)c(Cl)c1` [4-(3,4-Dichloro-phenyl)-N-(2,6-dimethyl-pyridin-3-yl)-4-methoxyimino-butyramide], the inhibition at 10 µM was 93%. `COC(=O)CC/C(=N\OCc1ccccc1)c1ccc(Cl)c(Cl)c1` [4-Benzyloxyimino-4-(3,4-dichloro-phenyl)-butyric acid methyl ester]: the inhibition at 10 µM stood at 66%. As for `CON=C(CCc1nc2cnccc2[nH]1)c1ccc(Cl)c(Cl)c1` [1-(3,4-Dichloro-phenyl)-3-(1H-imidazo[4,5-c]pyridin-2-yl)-propan-1-one O-methyl-oxime], the inhibition at 10 µM worked out at 64.3%. Turning to `CON=C(CCC(=O)Nc1ncc(C)nc1C)c1ccc(Cl)c(Cl)c1` [4-(3,4-Dichloro-phenyl)-N-(3,5-dimethyl-pyrazin-2-yl)-4-methoxyimino-butyramide], the inhibition at 10 µM is 101%. Regarding `CO/N=C(\CCC(=O)OC1CCC1)c1ccc(Cl)c(Cl)c1` [4-(3,4-Dichloro-phenyl)-4-methoxyimino-butyric acid cyclobutyl ester], the inhibition at 10 µM turned out to be 102%. The value for `CO/N=C(\CCC(=O)OC1CCCC1)c1ccc(Cl)c(Cl)c1` [4-(3,4-Dichloro-phenyl)-4-methoxyimino-butyric acid cyclopentyl ester] was 102%. For `CON=C(c1ccc(Cl)c(Cl)c1)C1C[C@@H]1C(=O)OC` (stereo partly drawn) [(1S,2S)-trans-2-[(3,4-Dichloro-phenyl)-methoxyimino-methyl]-cyclopropanecarboxylic acid methyl ester], the inhibition at 10 µM amounted to 61%. `CO/N=C(\CCC(=O)OC(C)C)c1ccc(Cl)c(Cl)c1` [4-(3,4-Dichloro-phenyl)-4-methoxyimino-butyric acid isopropyl ester]: the inhibition at 10 µM stood at 102%. The value for `CON=C(CCC(=O)Nc1c(C)cc(C)nc1C)c1ccc(Cl)c(Cl)c1` [4-(3,4-Dichloro-phenyl)-4-methoxyimino-N-(2,4,6-trimethyl-pyridin-3-yl)-butyramide] was 66.3%; that for `CCO/N=C(\CCC(=O)O)c1ccc(Cl)c(Cl)c1` [4-(3,4-Dichloro-phenyl)-4-ethoxyimino-butyric acid] was 107%. In the case of `CON=C(CCCC(=O)O)c1ccc(Cl)c(Cl)c1` [5-(3,4-Dichloro-phenyl)-5-methoxyimino-pentanoic acid], the inhibition at 10 µM came to 78.3%. With `CON=C(CCC(=O)Nc1cncc(F)c1)c1ccc(Cl)c(Cl)c1` [4-(3,4-Dichloro-phenyl)-N-(5-fluoro-pyridin-3-yl)-4-methoxyimino-butyramide], the inhibition at 10 µM amounted to 90.3%. `O=C(O)CC/C(=N\OCc1ccccc1)c1ccc(Cl)c(Cl)c1` [4-Benzyloxyimino-4-(3,4-dichloro-phenyl)-butyric acid]: the inhibition at 10 µM was found to be 61.9%.

`CON=C(CCC(=O)N(C)OC)c1ccc(Cl)c(Cl)c1` [4-(3,4-Dichloro-phenyl)-N-methoxy-4-methoxyimino-N-methyl-butyramide]: the inhibition at 10 µM came to 102%. In the case of `CON=C(CCC(=O)Nc1ccc(C)nc1)c1ccc(Cl)c(Cl)c1` [4-(3,4-Dichloro-phenyl)-4-methoxyimino-N-(6-methyl-pyridin-3-yl)-butyramide] it was 82.9%; in that of `CO/N=C(\CCc1nn[nH]n1)c1ccc(Cl)c(Cl)c1` [1-(3,4-Dichloro-phenyl)-3-(2H-tetrazol-5-yl)-propan-1-one O-methyl-oxime], 96.4%; in that of `CON=C(CCC(=O)Nc1cccnc1)c1ccc(Cl)c(Cl)c1` [4-(3,4-Dichloro-phenyl)-4-methoxyimino-N-pyridin-3-yl-butyramide], 103%. `CO/N=C(\CCC(=O)O)c1ccc(Cl)c(Cl)c1` [4-(3,4-Dichloro-phenyl)-4-methoxyimino-butyric acid]: the inhibition at 10 µM was 106%. Regarding `CON=C(CCC(=O)Nc1cnc(C)nc1)c1ccc(Cl)c(Cl)c1` [4-(3,4-Dichloro-phenyl)-4-methoxyimino-N-(2-methyl-pyrimidin-5-yl)-butyramide], the inhibition at 10 µM worked out at 90.4%. With `CO/N=C(\CCC(=O)Nc1ccon1)c1ccc(Cl)c(Cl)c1` [4-(3,4-Dichloro-phenyl)-N-isoxazol-3-yl-4-methoxyimino-butyramide], the inhibition at 10 µM amounted to 101%. Regarding `CO/N=C(\CCC(=O)Nc1cnn(C)c1)c1ccc(Cl)c(Cl)c1` [4-(3,4-Dichloro-phenyl)-4-methoxyimino-N-(1-methyl-1H-pyrazol-4-yl)-butyramide], the inhibition at 10 µM turned out to be 90.5%. As to `NCCON=C(CCC(=O)O)c1ccc(Cl)c(Cl)c1` [4-[2-Amino-ethoxyimino]-4-(3,4-dichloro-phenyl)-butyric acid trifluoroacetic acid salt], the inhibition at 10 µM was determined as 49.5%. Take `CON=C(CCc1noc(C)n1)c1ccc(Cl)c(Cl)c1` (single isomer, unassigned) [1-(3,4-Dichloro-phenyl)-3-(5-methyl-[1,2,4]oxadiazol-3-yl)-propan-1-one O-methyl-oxime]: the inhibition at 10 µM was 87.2%. On to `CON=C(CCC(=O)O)c1cccc(Cl)c1` [4-(3-Chloro-phenyl)-4-methoxyimino-butyric acid], for which the inhibition at 10 µM worked out at 101%. The value for `CON=C(CCC(=O)NCc1cccnc1)c1ccc(Cl)c(Cl)c1` [4-(3,4-Dichloro-phenyl)-4-methoxyimino-N-pyridin-3-ylmethyl-butyramide] was 77.1%; that for `CON=C(CCC(=O)N(C)c1cccnc1)c1ccc(Cl)c(Cl)c1` [4-(3,4-Dichloro-phenyl)-4-methoxyimino-N-methyl-N-pyridin-3-yl-butyramide] was 62.5%. For `COC(=O)CCC(=NO)c1ccc(Cl)c(Cl)c1` [4-(3,4-Dichloro-phenyl)-4-hydroxyimino-butyric acid methyl ester], the inhibition at 10 µM amounted to 99.4%. The value for `CON=C(c1ccc(Cl)c(Cl)c1)[C@H]1C[C@@H]1C(=O)O` [(1S,2S)-trans-2-[(3,4-Dichloro-phenyl)-methoxyimino-methyl]-cyclopropanecarboxylic acid] was 81.2%.
